Experimental data published in patent US6998410B2, “Compositions” (Altana Pharma AG, priority 1997, dated 2006).

Tested on: Adult Sprague Dawley rats lavaged until their endogenous lung surfactant is washed out
Assay: Arterial oxygen partial pressure (PaO2) in lung-lavaged, ventilated rats (animal model of ARDS) after intratracheal instillation
Format: in vivo, rat (Sprague Dawley)
Conditions: for PaO2, average value (± standard deviation): Compound A 600 μg/kg alone
Description: Adult Sprague Dawley rats are artificially ventilated with pure oxygen and a positive end-expiratory pressure (PEEP; in order to guarantee oxygenation of the rats) and lavaged until their endogenous lung surfactant is washed out (D. Häfner, U. Kilian and R. Beume: Comparison of four lung surfactant preparations in an animal model of adult respiratory distress syndrome (ARDS). Am. Rev. Respir. Dis. 1993, 147:A719; D. Häfner, P. -G. Germann, D. Hauschke, Pulmonary Pharmacology (1994) 7, 319–332). This is manifested by the fact that in the animals the preliminary values of the arterial oxygen partial pressure (PaO2) of 500–550 mm Hg (in the case of pure oxygen ventilation and PEEP) decrease to values of 50–110 mm Hg. Animals of the control group, which are not treated with lung surfactant, remain with their PaO2 at these low values throughout the observation period. Sixty minutes after the PaO2 has decreased to these values, lung surfactant or lung surfactant together with N-(3,5-dichloropyrid-4-yl)-3-cyclopropylmethoxy-4-difluoromethoxybenzamide is instilled intratracheally. The blood gases are determined 30 and 120 minutes after instillation.
In Table 1 and Table 2 which follow, in line A the average values (±standard deviation) of the PaO2 are indicated in mm Hg for the time 30 minutes (constant PEEP of 8 cm H2O) after intratracheal instillation and in line B 120 minutes after intratracheal instillation. […] This follows by comparison with the untreated control animals. […] It is therefore possible to save a part of the very expensive lung surfactant, or else to obtain an increased action of each individual component.

Q: How did the “PaO2, average value (± standard deviation)” value (line A: 30 minutes after intratracheal instillation (constant PEEP of 8 cm H2O)) turn out when `O=C(Nc1c(Cl)cncc1Cl)c1ccc(OC(F)F)c(OCC2CC2)c1` [Compound A, N-(3,5-dichloropyrid-4-yl)-3-cyclopropylmethoxy-4-difluoromethoxybenzamide] was run?
A: 59 ± 12 mm Hg

Q: And the “PaO2, average value (± standard deviation)” value (line B: 120 minutes after intratracheal instillation)?
A: 75 ± 24 mm Hg

Q: What about the “Influence on the PaO2 (in words)” value (sole administration, by comparison with the untreated control animals) of the same compound?
A: no influence on the PaO2
